Molecules are shown by their SMILES.

The melting point is the temperature of the solid-liquid transition. As for `COc1cc(-c2ncn(-c3cc(OC)c(OC)c(OC)c3)c2-c2cc(OC)c(OC)c(OC)c2)cc(OC)c1OC`, the melting point lay in the range of 169 to 171 °C.
The value for `COc1ccc(S(=O)(=O)n2ccc3ccnc(Nc4ccc(F)cc4)c32)cc1` was 125 to 127 °C; that for `CC(=O)NCC1=C(n2ccccc2=O)c2cc(C(F)(F)F)ccc2OC1(C)C` was 174 °C; that for `COc1cccc2c1C(=O)N(CSc1ccccc1)S2(=O)=O` was 152 to 154 °C.
The value for `COc1nsc(N2CCN(c3ccccn3)CC2)n1` was 144 to 145 °C.
The value for `Cc1oc2ccccc2c1C(=O)NCc1ccc2c(Br)c(O)ccc2c1` was 179 to 181 °C.
The molecule `N#Cc1ccc(NC(=O)c2cccc(OCc3ccc(OC(F)(F)F)cc3)c2)cc1` displayed a melting point of 138 to 139 °C.
Turning to `CC#COc1cccc2oc3ccccc3c(=O)c12`, the melting point lay in the range of 168 to 169 °C.
`CC(=O)OCC1Cc2c(c3cccnc3n(-c3ccccc3)c2=O)O1` (configuration not stated) registered a melting point of 207 to 208 °C.
The value for `O=C(Sc1ccccn1)c1ccncc1` was 115 °C; that for `COc1cccc(Cc2nc3c(cnn3C(CCCc3ccccc3)C(C)O)c(=O)[nH]2)c1` (configuration not stated) was 54 °C; that for `CCOCc1nc2c(N)nc3ccccc3c2n1NC(CC)CC` was 125 to 128 °C.
The value for `N#CC1CCc2cc(C(=O)O)ccc2C1` (configuration not stated) was 231 to 236 °C; that for `NC(=O)CCCCCOc1cc(-c2ccccc2)cc(-c2ccccc2)n1` was 118 to 120 °C; that for `CC1(C)OCC(=O)Nc2ccc(-c3cc(F)cc(C#N)c3)cc21` was 238 to 239 °C.
The value for `O=C(Nc1c(C(O)(C(F)(F)F)C(F)(F)F)ccc2ccccc12)c1cccc([N+](=O)[O-])c1` was 211 to 212 °C; that for `COc1cc(S(C)(=O)=O)ccc1-c1ccc(C#N)c(=O)[nH]1` was 280 to 282 °C.
The molecule `C=CCn1c(NCC#N)nc(N2CCc3ccccc3CC2)c(C#N)c1=O` displayed a melting point of 198 to 203 °C.
The result for `COc1cccc(C(=O)Nc2nc(-c3cccc(C#N)c3)c(-c3ccncn3)s2)c1` reads 255 to 256 °C.
The result for `COC(=O)CCc1cc(C(=O)c2cccc(C(=O)OC)n2)ccc1O` reads 121 to 122 °C; that for `COc1ccc(C(=N)N(N)c2c(Cl)cncc2Cl)cc1OC1CCCC1`, 130 to 131 °C.
Consider `CCOCc1nc2c(N)nc3ccccc3c2n1Cc1cc(-c2ccc(F)cc2)no1`, for which the melting point is 203 to 204 °C.
For `Cc1c(-c2ccccc2)oc(=O)n1C1CCN(CCc2ccccc2)CC1`, the melting point was determined as 144 °C.
The value for `Cn1cc(C2=C(c3c4n(c5ccccc35)C[C@@H]3CN(C=O)C[C@@H]3C4)C(=O)NC2=O)c2ccccc21` (relative stereo) was 316 to 318 °C; that for `N#CCc1cc(Br)cc(Cc2nc3c(F)c(F)cc(F)c3s2)c1` was 119 to 124 °C.
The value for `O=C1NCC(Cc2ccc3c(c2)OCO3)O1` (configuration not stated) was 98.5 to 100 °C.
The result for `Cc1noc(NS(=O)(=O)c2ccsc2C(=O)NCc2ccccc2)c1Br` reads 186 to 190 °C; that for `CCCc1nc2c(C)ccnc2n1Cc1ccc(-c2ccccc2-c2nnn[nH]2)cc1`, 200 to 202 °C; that for `CC(=O)c1ccc(-c2ccc(Cl)cc2)c(N)c1`, 139 to 140 °C.
In the case of `CCCC=Cc1c(C(C)C)nc(C(C)C)c(CO)c1-c1ccc(Cl)c(Cl)c1`, the melting point lay within 46 to 48 °C.
The result for `O=C(c1ccc(O)cc1)c1ccc(OCCBr)cc1` reads 136 to 138 °C.
Regarding `Nc1nc(-n2cc(C(=O)O)c(=O)c3cc(F)c(F)c(F)c32)c(F)cc1F`, the melting point amounted to 280 °C.
The value for `COc1ccc2nc(-c3ccc(OC)c(F)c3)cc(O)c2c1` was 326 to 328 °C; that for `OCc1cc(F)nc(F)c1` was 66 to 67 °C.
Take `O=C1CCC(O)(c2ccc(F)cc2)CC1`: the melting point lay in the range of 108 to 114 °C.
Molecule `COc1cc(N)c(Cl)cc1C(=O)NCC1CCN(CCCCCCOc2ccccc2)CC1` displayed a melting point of 113 to 115 °C.
`CC(=O)NCc1ccc(Oc2ccccc2C(=O)CN2CCN(c3ccncc3)CC2)cc1` showed a melting point of 150 to 151 °C.
The value for `Cc1c(-c2ccc(O)cc2)n(Cc2ccc(OCCN3CCCC3)cc2)c2ccc(O)cc12` was 105 to 110 °C; that for `CCOC(=O)c1ccc(NCc2ccc(Cl)s2)cc1` was 108 to 109 °C.
As to `Nc1ncc(-c2cc(C(F)(F)F)cc(C(F)(F)F)c2)nc1C(=O)Nc1cccnc1`, the melting point fell in the range of 220 to 222 °C.
The result for `O=C1COc2cc(OCc3c(F)cccc3F)ccc21` reads 134 to 138 °C; that for `O=C(NC1CC1)c1cccc2c1CC(NC1CC1)CO2` (configuration not stated), 126 to 127 °C.
The result for `Cn1ncnc1COc1nn2c(C3CC3)nncc2c1-c1ccccc1F` reads 97 to 99 °C.
The value for `CC(=O)OC1CSC(Oc2cccc(-c3cn(C)nc3C(F)(F)F)c2)C(OC(C)=O)C1OC(C)=O` (configuration not stated) was 131 to 133 °C; that for `CC1C(=NCCCN(C)C)c2c([nH]c3ccc(Cl)cc3c2=O)CC1c1ccc(C(F)(F)F)cc1` (configuration not stated) was 169 to 170 °C; that for `COc1cc(C=O)cc(C#N)c1O` was 180 °C.
`CC(C)c1cc(C(C)C)c(CCC(=O)O)c(C(C)C)c1` showed a melting point of 194 to 196 °C.
The value for `CC(=O)N1CCc2cc([N+](=O)[O-])cc(C#N)c21` was 245 to 255 °C.
Take `CC(=O)c1ccc2ccn(S(=O)(=O)c3ccccc3)c2c1`: the melting point fell in the range of 160 to 163 °C.
The value for `COc1ccc(NC(=O)c2c(C)c([N+](=O)[O-])cc3nc(OC)c(OC)nc23)cc1` was 206 to 208 °C; that for `O=C(CCc1ccccc1)Nc1c(O)cc(-c2ccccc2)oc1=O` was 191 to 193 °C.
In turn, `Cc1cc(O)c(S(=O)(=O)CC(C)C)c(=O)o1` registered a melting point of 90 to 91 °C.
The value for `CSCC(=O)[C@H](Cc1ccc(O)cc1)NC(=O)[C@H](CC(C)C)NC(=O)OCc1ccccc1` was 108 to 111 °C; that for `O=C(O)CCNC(=O)C(=Cc1cccc2ccccc12)CS` was 133 °C.
The value for `CCCCC1=C(/C=C/C(=O)Oc2ccc([N+](=O)[O-])cc2)CCc2cc(OC)ccc21` was 94 to 95 °C; that for `CCN1C(=O)[C@@H](NC(=O)OC(C)(C)C)COc2ccccc21` was 112 °C; that for `CC(=O)Nc1cccc(-n2ccnc2C)c1` was 238 to 240 °C.
Regarding `CCOC(=O)[C@H](Cc1cccc(Oc2ccc(O)cc2)c1)NC(=O)C(F)(F)F`, the melting point was 109 to 111 °C.
The value for `N#CCCNC(=O)c1cccc(-c2ccc3c(c2)C(c2ccc(Cl)cc2Cl)CO3)c1` (configuration not stated) was 130 to 131 °C.
The result for `NC(=O)c1csnc1-c1cccc(C(F)(F)F)c1` reads 141 to 142 °C.
The molecule `COc1cc(CN(C)c2ncc(C(=O)NO)cn2)cc(C(=O)Nc2ccc(Cl)c(-c3nc4cc(N(C)C)ccc4[nH]3)c2)c1` registered a melting point of 207 to 208 °C.
The result for `CCCSC1(SCCC)CCC2C3CCC4=CC(=O)C=CC4(C)C3(F)C(O)CC21C` (configuration not stated) reads 235 to 237 °C.
The result for `COc1cccc(C2=C(CC(C)=NO)C(=O)NCCC2)c1` reads 155 to 158 °C; that for `COCCOC(=O)C1=C(C)NC(C)=C(C(=O)OCCOC)C1c1ccccc1OC(F)F`, 94 to 95 °C.
Molecule `CCCCCCC(Cc1ccc(OCCN2CCCCCC2)cc1)(C(=O)NO)S(=O)(=O)c1ccc(OC)cc1` (configuration not stated) registered a melting point of 65 °C.
The result for `Cc1nc2c(c3ccccc3n3nnnc23)n1CC(C)(C)O` reads 202 to 205 °C; that for `COCC(COC)Oc1ccc(C#CC2(O)CN3CCC2CC3)cc1` (configuration not stated), 125 to 127 °C; that for `O=C(O)c1ccc(C(=O)NOCc2ccc3ccccc3c2)cc1`, 241 to 243 °C.
The value for `CCC(CC)Nc1cc(C(=O)OC)ccc1N1C(=O)CCC1(CO)CCO` (configuration not stated) was 141 to 143 °C; that for `CNN(NC)C(=O)Nc1cccc2c1C(=O)c1c-2n[nH]c1-c1ccc(OC)s1` was 280 °C.
The result for `COCCOC1(S(C)=O)C=CC=C(C(=O)c2cnoc2C2CC2)C1Br` (configuration not stated) reads 86.2 to 87 °C; that for `CC(=O)NCCC1CCc2ccc3nc(CCc4ccccc4)oc3c21` (configuration not stated), 85 to 87 °C; that for `CCOC(=O)c1cnc2c(OC)cccc2c1Nc1cscc1OC`, 176 to 178 °C.
Molecule `COc1ccc(OCc2ccccc2)c2c1OCCO2` had a melting point of 70 °C.
The result for `CCC1(C)CC(O)C2(C)CCC3c4ccc(OC)cc4CCC3C12` (configuration not stated) reads 133 to 136 °C.
The value for `COc1cc(OC)cc(Oc2ccc(C(=O)N(C(C)C)C3CCCCC3)cc2)c1` was 140 °C.
Turning to `O=c1[nH]c2cc(Cl)cc(Cl)c2c(O)c1Sc1ccc(NS(=O)(=O)c2ccc(Cl)cc2)cc1`, the melting point fell in the range of 270 to 274 °C.
As for `O=C(O)CCC=C(c1ccccc1)c1ccccc1`, the melting point lay within 80 to 81.5 °C.
For `CCOC(=O)c1c(Cl)c2cc(F)cnc2[nH]c1=O`, the melting point came to 217 °C.
The result for `CCOC(=O)COc1c(OC)cc(Cl)c2c1CN1CCc3cc(OC)c(O)cc3C1C2` (single isomer, unassigned; (-)) reads 132 °C; that for `CCC(C)N(C)C(=O)c1cc(-c2ccccc2F)c2ccccc2n1` (configuration not stated), 86 °C.
The result for `Cn1cc(-c2cc3nccnc3[nH]2)c2cc(O)ccc21` reads 289 to 290 °C; that for `CC(C)(C)NC(=O)[C@@H]1CCCN1C(=O)[C@@H](O)[C@H](Cc1ccccc1)NC(=O)[C@H](CC(N)=O)NC(=O)COc1cccc(N)c1`, 108 to 114 °C.
The result for `COc1ccc(-c2cc(C(C)(C)C)sc2-c2ccc(OC)cc2)cc1` reads 112 to 115 °C.
In the case of `COc1ccc(C#Cc2ccc(C=O)cc2)cc1`, the melting point is 106 °C.
For `CCCCC(=O)c1c(CBr)nc2cc(OC)c(OC)cc2c1-c1ccc(OC)c(OC)c1`, the melting point lay in the range of 150 to 151 °C.
In turn, `Cc1[nH]cc2c(=O)n(-c3ccc(Cl)cc3)nc-2c1-c1cccc(NCc2cccnc2)c1` displayed a melting point of 284 to 287 °C.

These data come from a melting point compilation (Tetko et al.; mined from patent text by program, amines drawn as free bases though some values may be those of a salt).
